Columns and labels:
Conditions in all cases: Not Active = under 50% inhibition at 10 µM
[1] = biological target: Sigma non-opioid intracellular receptor 1 (Homo sapiens, UniProt Q99720); assay: DRUGMATRIX: Sigma1 radioligand binding (ligand: [3H] Haloperidol); format: cell membranes, Jurkat, Membrane
[2] = biological target: Beta-2 adrenergic receptor (Homo sapiens, UniProt P07550); assay: DRUGMATRIX: Adrenergic beta2 radioligand binding (ligand: [3H] CGP-12177); format: cell membranes, CHO, Membrane
[3] = biological target: Beta-1 adrenergic receptor (Homo sapiens, UniProt P08588); assay: DRUGMATRIX: Adrenergic beta1 radioligand binding (ligand: [125I] Cyanopindolol); format: cell membranes, CHO-K1, Membrane
[4] = biological target: Tyrosine-protein kinase Lck (Homo sapiens, UniProt P06239); assay: DRUGMATRIX: Protein Tyrosine Kinase, LCK enzyme inhibition (substrate: Poly(Glu:Tyr)); format: cell-based, Insect cells
Tyrosine-protein kinase Lck, sequence (P06239 whole entry): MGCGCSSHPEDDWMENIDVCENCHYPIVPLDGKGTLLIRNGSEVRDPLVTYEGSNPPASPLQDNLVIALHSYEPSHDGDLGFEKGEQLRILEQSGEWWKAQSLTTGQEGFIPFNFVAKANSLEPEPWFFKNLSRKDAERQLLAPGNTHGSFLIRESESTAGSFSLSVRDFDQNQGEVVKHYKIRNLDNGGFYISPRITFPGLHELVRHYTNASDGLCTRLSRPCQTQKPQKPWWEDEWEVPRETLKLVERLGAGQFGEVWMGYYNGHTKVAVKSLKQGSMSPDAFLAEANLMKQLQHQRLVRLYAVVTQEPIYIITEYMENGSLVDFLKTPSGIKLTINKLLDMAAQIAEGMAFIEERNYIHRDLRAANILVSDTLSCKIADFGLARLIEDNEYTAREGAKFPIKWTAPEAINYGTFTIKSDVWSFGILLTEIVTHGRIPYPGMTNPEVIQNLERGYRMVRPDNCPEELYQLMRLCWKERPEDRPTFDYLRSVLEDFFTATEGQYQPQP

Beta-1 adrenergic receptor, sequence (P08588 whole entry): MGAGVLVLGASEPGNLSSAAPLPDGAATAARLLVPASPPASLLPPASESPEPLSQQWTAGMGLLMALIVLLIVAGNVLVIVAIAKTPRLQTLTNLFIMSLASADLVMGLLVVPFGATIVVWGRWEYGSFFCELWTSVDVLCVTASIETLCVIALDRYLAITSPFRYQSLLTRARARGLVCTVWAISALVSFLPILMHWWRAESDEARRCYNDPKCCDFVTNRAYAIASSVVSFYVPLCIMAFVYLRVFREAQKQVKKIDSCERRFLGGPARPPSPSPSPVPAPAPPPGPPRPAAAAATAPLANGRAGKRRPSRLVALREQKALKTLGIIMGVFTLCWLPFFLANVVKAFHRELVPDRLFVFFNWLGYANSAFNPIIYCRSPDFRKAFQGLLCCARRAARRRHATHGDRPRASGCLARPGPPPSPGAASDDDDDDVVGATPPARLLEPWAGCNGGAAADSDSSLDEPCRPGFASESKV
Beta-2 adrenergic receptor, sequence (P07550 whole entry): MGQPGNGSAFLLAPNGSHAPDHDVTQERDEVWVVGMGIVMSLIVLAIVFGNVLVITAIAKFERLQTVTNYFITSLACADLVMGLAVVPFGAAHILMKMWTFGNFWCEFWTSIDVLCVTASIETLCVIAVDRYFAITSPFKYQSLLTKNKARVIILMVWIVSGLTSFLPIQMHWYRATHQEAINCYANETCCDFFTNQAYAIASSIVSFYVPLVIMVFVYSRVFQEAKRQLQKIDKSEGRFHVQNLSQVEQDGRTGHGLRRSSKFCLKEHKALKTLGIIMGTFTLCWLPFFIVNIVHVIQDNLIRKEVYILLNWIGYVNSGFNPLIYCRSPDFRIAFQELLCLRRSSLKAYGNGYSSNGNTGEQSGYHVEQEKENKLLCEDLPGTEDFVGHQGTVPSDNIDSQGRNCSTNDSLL
Sigma non-opioid intracellular receptor 1, sequence (Q99720 whole entry): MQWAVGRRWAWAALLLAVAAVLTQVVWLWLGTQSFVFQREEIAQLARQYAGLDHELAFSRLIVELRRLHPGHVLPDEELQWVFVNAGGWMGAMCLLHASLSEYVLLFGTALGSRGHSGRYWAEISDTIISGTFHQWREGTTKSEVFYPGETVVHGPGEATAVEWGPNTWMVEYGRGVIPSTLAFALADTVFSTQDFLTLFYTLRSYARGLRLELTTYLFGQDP

| Compound | IC50 ([1]; jurkat) | IC50 ([2]; cho) | IC50 ([3]; cho-k1) | IC50 ([4]; insect cells) | further results |
| --- | --- | --- | --- | --- | --- |
| COc1ccccc1OCC(O)COC(N)=O (configuration not stated) [METHOCARBAMOL] | Not Active | Not Active | Not Active | Not Active |  |
| CO[C@@]1(NC(=O)CSCC#N)C(=O)N2C(C(=O)O)=C(CSc3nnnn3C)CS[C@@H]21 [CEFMETAZOLE] | Not Active | Not Active | Not Active | Not Active |  |
| C=C(CC)C(=O)c1ccc(OCC(=O)O)c(Cl)c1Cl [ETHACRYNIC ACID] | Not Active | Not Active | Not Active | Not Active |  |
| Oc1ccccc1O [CATECHOL] | Not Active | Not Active | Not Active | Not Active |  |
| CC(C)(CO)C(O)C(=O)NCCCO (configuration not stated) [PANTHENOL] | Not Active | Not Active | Not Active | Not Active |  |
| NC(=O)N1c2ccccc2C=Cc2ccccc21 [CARBAMAZEPINE] | Not Active | Not Active | Not Active | Not Active |  |
| O=P1(N(CCCl)CCCl)NCCCO1 (configuration not stated) [CYCLOPHOSPHAMIDE ANHYDROUS] | Not Active | Not Active | Not Active | Not Active |  |
| Cc1cccc(Nc2ccccc2C(=O)O)c1C [MEFENAMIC ACID] | Not Active | Not Active | Not Active | Not Active |  |
| CCn1cc(C(=O)O)c(=O)c2cc(F)c(N3CCNCC3)nc21 [ENOXACIN] | Not Active | Not Active | Not Active | Not Active |  |
| Cc1c(N(C)CS(=O)(=O)[O-])c(=O)n(-c2ccccc2)n1C.[Na+] [DIPYRONE SODIUM] | Not Active | Not Active | Not Active | Not Active |  |
| CCOC(=O)n1ccn(C)c1=S [CARBIMAZOLE] | Not Active | Not Active | Not Active |  | Ki ([4]; insect cells): Not Active |
| CN1C(=O)CN=C(c2ccccc2)c2cc(Cl)ccc21 [DIAZEPAM] | Not Active | Not Active | Not Active | Not Active |  |
| NC[C@H]1O[C@H](O[C@H]2[C@H](O)[C@@H](O[C@H]3O[C@H](CO)[C@@H](O)[C@H](N)[C@H]3O)[C@H](N)C[C@@H]2N)[C@H](O)[C@@H](O)[C@@H]1O [KANAMYCIN] | Not Active | Not Active |  | Not Active |  |
| COc1cc(CNC(=O)CCCC/C=C/C(C)C)ccc1O [CAPSAICIN] | Not Active | Not Active | Not Active | Not Active |  |
| C[C@H](C(=O)O)c1cccc(C(=O)c2ccccc2)c1 [DEXKETOPROFEN] | Not Active | Not Active | Not Active | Not Active |  |
| NC[C@@H]1O[C@H](O[C@H]2[C@@H](O)[C@H](O[C@@H]3[C@@H](O)[C@H](N)C[C@H](N)[C@H]3O[C@H]3O[C@H](CN)[C@@H](O)[C@H](O)[C@H]3N)O[C@@H]2CO)[C@H](N)[C@@H](O)[C@@H]1O [FRAMYCETIN] | Not Active | Not Active | Not Active | Not Active |  |
| C[C@]12C/C(=C/O)C(=O)C[C@@H]1CC[C@@H]1[C@@H]2CC[C@@]2(C)[C@H]1CC[C@]2(C)O [OXYMETHOLONE] | Not Active | Not Active | Not Active | Not Active |  |
| CCOC(=O)[C@H](CCc1ccccc1)N[C@@H](C)C(=O)N1Cc2ccccc2C[C@H]1C(=O)O | Not Active | Not Active | Not Active | Not Active |  |

| Compound | IC50 ([1]; jurkat) | IC50 ([2]; cho) | IC50 ([3]; cho-k1) | IC50 ([4]; insect cells) | further results |
| --- | --- | --- | --- | --- | --- |
| C=C1/C(=C\C=C2/CCC[C@]3(C)[C@@H]([C@H](C)CCCC(C)C)CC[C@@H]23)C[C@@H](O)C[C@@H]1O [ALFACALCIDOL] | Not Active | Not Active | Not Active | Not Active |  |
| CCCCC1C(=O)N(c2ccccc2)N(c2ccccc2)C1=O [PHENYLBUTAZONE] | Not Active | Not Active | Not Active | Not Active |  |
| [N-]=[N+]=CC(=O)OC[C@H](N)C(=O)O [AZASERINE] | Not Active | Not Active | Not Active | Not Active |  |
| N[C@@H](Cc1ccc(F)cc1)C(=O)O | Not Active | Not Active | Not Active | Not Active |  |
| CCOC(=O)C1=C(C)NC(C)=C(C(=O)OC)C1c1cccc(Cl)c1Cl (configuration not stated) [FELODIPINE] | Not Active | Not Active | Not Active | Not Active |  |
| CCC[C@@H]1C[C@@H](C(=O)N[C@@H]([C@H]2O[C@H](SC)[C@H](O)[C@@H](O)[C@H]2O)[C@H](C)Cl)N(C)C1 [CLINDAMYCIN] | Not Active | Not Active | Not Active | Not Active |  |
| Nc1nc(N)nc(NC2CC2)n1 [CYROMAZINE] | Not Active | Not Active | Not Active | Not Active |  |
| CC[C@H](C)C(=O)O[C@H]1C[C@H](O)C=C2C=C[C@H](C)[C@H](CC[C@@H](O)C[C@@H](O)CC(=O)O)[C@H]21 [PRAVASTATIN] | Not Active | Not Active | Not Active | Not Active |  |
| OCCN1CCN(CCCN2c3ccccc3Sc3ccc(Cl)cc32)CC1 [PERPHENAZINE] | Not Active | Not Active | Not Active | Not Active |  |
| CCC(=O)O[C@H]1[C@H](O[C@@H]2[C@@H](C)[C@H](O[C@H]3C[C@@](C)(OC)[C@@H](O)[C@H](C)O3)[C@@H](C)C(=O)O[C@H](CC)[C@@](C)(O)[C@H](O)[C@@H](C)C(=O)[C@H](C)C[C@@]2(C)O)O[C@H](C)C[C@@H]1N(C)C [ERYTHROMYCIN PROPIONATE] | Not Active | Not Active | Not Active | Not Active |  |
| Nc1nc(Cl)nc2c1ncn2[C@H]1C[C@H](O)[C@@H](CO)O1 [CLADRIBINE] | Not Active | Not Active | Not Active | Not Active |  |
| CC(C)(Sc1cc(C(C)(C)C)c(O)c(C(C)(C)C)c1)Sc1cc(C(C)(C)C)c(O)c(C(C)(C)C)c1 [PROBUCOL] | Not Active | Not Active | Not Active | Not Active |  |
| CN1C[C@H](C(=O)N[C@]2(C)O[C@@]3(O)[C@@H]4CCCN4C(=O)[C@H](Cc4ccccc4)N3C2=O)C[C@@H]2c3cccc4[nH]cc(c34)C[C@H]21 [DIHYDROERGOTAMINE] | Not Active | Not Active | Not Active | Not Active |  |
| CC(CCc1ccc(O)cc1)NCCc1ccc(O)c(O)c1 (configuration not stated) [DOBUTAMINE] |  |  |  |  | IC50 ([1]; read-out: IC50): 2.52 µM; Ki ([1]; read-out: Ki): 1.06 µM; IC50 ([2]; read-out: IC50): 1.52 µM; Ki ([2]; read-out: Ki): 1.04 µM; IC50 ([3]; read-out: IC50): 1.94 µM; Ki ([3]; read-out: Ki): 1.12 µM; IC50 ([4]; read-out: IC50): 5.52 µM |
| CS(=O)(=O)OCCCCOS(C)(=O)=O [BUSULFAN] | Not Active | Not Active | Not Active | Not Active |  |
| CC[C@H]1OC(=O)[C@H](C)[C@@H](O[C@H]2C[C@@](C)(OC)[C@@H](O)[C@H](C)O2)[C@H](C)[C@@H](O[C@@H]2O[C@H](C)C[C@H](N(C)C)[C@H]2O)[C@](C)(O)C[C@@H](C)CN(C)[C@H](C)[C@@H](O)[C@]1(C)O [AZITHROMYCIN] | Not Active | Not Active | Not Active | Not Active |  |
| C/C=C\c1ccc(O)c(OC)c1 [ISOEUGENOL] | Not Active | Not Active | Not Active | Not Active |  |

— ChEMBL document CHEMBL1909046, “DrugMatrix in vitro pharmacology data”
